Source: US9944634B2, “Pyrazolopyridine derivatives as TTX-S blockers” (RaQualia Pharma Inc., priority 2012, dated 2018)
Read-outs that look alike come from different tables or passages of the source.

Tests used:
Format in all cases: cell-based
human Nav1.7 channels = target: T1, human Nav1.7 channels (Homo sapiens, UniProt Q15858); experiment: FRET assay, human Nav1.7 channels
T1 construct: expressed in transfected cells; host or cells: CHO cells
Procedure: (§1) The inhibitory activities of compounds against voltage gated sodium channels are determined by methodology well known in the art.
(§2) The ability of the pyrazolopyridine derivatives of the formula (I) to inhibit the Nav1.3, Nav1.7 and Nav1.5 channels is measured by Fluorescence Resonance Energy Transfer (FRET) assay and electrophysiology assay described below.
(§3) This screen is used to determine the effects of compounds on human Nav1.3, human Nav1.7, and human Nav1.5 channels, utilising electrical field stimulation (EFS) system in 96-well plate format on FDSS (Hamamatsu Photonics) platform. The change of membrane potential is monitored with FRET dye pair, oxonol (DiSBAC2(3)) and coumarin (CC2-DMPE).
CHO cells expressing human Nav1.7 channels are grown in T225 flasks, in a 5% CO2 humidified incubator to about 80% confluence. Media composition consists of HAM/F12 with Glutamax I, 10% FCS, 100 units/mL penicillin and 100 microgram/mL hygromycin. […]
(§4) The data are analyzed and reported as normalized ratios of intensities measured at […]. […]
(§5) This analysis is performed using a computerized specific program designed for FDSS generated data. Fluorescence ratio values are plotted using XLfit to determine an IC50 value for each compound.

human Nav1.3 (hSCN3A) = target: T2, human Nav1.3 (hSCN3A) (Homo sapiens, UniProt Q9NY46); experiment: Electrophysiology assay (whole cell patch clamp), human Nav1.3; conditions: dissociation constant for the inactivated state, HEK293 cells, read-out: activity (Ki) against Nav1.3
T2 construct: expressed in transfected cells; host or cells: HEK293 cells
Procedure: (§6) Electrophysiology Assay for Nays
(§7) Whole cell patch clamp recording is used to assess the efficacy or selectivity of Na channel blocker on human Nav1.3 (hSCN3A) expressing HEK293 cells or human Nav1.7 (hSCN9A) expressing CHO cells. Human Nav1.3 expressing HEK293 cells are grown in growth media which contain: DMEM, 10% heat-inactivated FBS (Hyclone Laboratories Inc), 100 microgram/mL penicillin/100U/mL streptomycin, 150 microgram/mL Zeocin, and 3 microgram/mL Geneticin. Human Nav1.7 expressing CHO cells are grown in growth media which contain: HAMF-12, 9% heat-inactivated FBS (Hyclone Laboratories Inc), and 100 microgram/mL penicillin/100 U/mL streptomycin, and 100 microgram/mL hygromycin. […]
(§8) The normalized steady-state inactivation curve is constructed using 2 sec (for vehicle) or 60 sec (for drugs) conditioning pulse to different potentials followed immediately by the test pulse to −10 mV. […] The affinity of drugs to resting state of Na channels (Kresting or Kr) is assessed by 30 msec test pulse from a negative holding potential of -120 or −130 mV, where virtually all channels are in the resting state. Kr value is calculated by a conventional 1:1 binding model: Kresting(Kr)={[drug]Imax,drug/(Imax,control−Imax,drug)} [Math.2] • where Kresting(=Kr) is a dissociation constant for the resting state and [drug] is compound concentration. […]

human Nav1.5 channels = target: T3, human Nav1.5 channels (Homo sapiens, UniProt Q14524); experiment: FRET assay, human Nav1.5 channels; conditions: read-out: activity against Nav1.5 (IC50)
T3 construct: expressed in transfected cells; host or cells: HEK293 cells
Procedure: as §1, §2, §3
Each HEK293 cells expressing human Nav1.3 channels and HEK293 cells expressing human Nav1.5 channels are grown in T225 flasks, in a 5% CO2 humidified incubator to about 80% confluence. Media composition consists of Dulbecco's Modified Eagle Medium (high glucose), 10% FCS, 100 units/mL penicillin, 100 microgram/mL streptomycin and 500 microgram/mL Geneticine. […]
as §4, §5

human Nav1.7 (hSCN9A) = target: T4, human Nav1.7 (hSCN9A) (Homo sapiens, UniProt Q15858); experiment: Electrophysiology assay (whole cell patch clamp), human Nav1.7; conditions: dissociation constant for the inactivated state, CHO cells, read-out: activity (Ki) against Nav1.7
T4 construct: expressed in transfected cells; host or cells: CHO cells
Procedure: as §6, §7, §8

T1 sequence (Q15858 whole entry): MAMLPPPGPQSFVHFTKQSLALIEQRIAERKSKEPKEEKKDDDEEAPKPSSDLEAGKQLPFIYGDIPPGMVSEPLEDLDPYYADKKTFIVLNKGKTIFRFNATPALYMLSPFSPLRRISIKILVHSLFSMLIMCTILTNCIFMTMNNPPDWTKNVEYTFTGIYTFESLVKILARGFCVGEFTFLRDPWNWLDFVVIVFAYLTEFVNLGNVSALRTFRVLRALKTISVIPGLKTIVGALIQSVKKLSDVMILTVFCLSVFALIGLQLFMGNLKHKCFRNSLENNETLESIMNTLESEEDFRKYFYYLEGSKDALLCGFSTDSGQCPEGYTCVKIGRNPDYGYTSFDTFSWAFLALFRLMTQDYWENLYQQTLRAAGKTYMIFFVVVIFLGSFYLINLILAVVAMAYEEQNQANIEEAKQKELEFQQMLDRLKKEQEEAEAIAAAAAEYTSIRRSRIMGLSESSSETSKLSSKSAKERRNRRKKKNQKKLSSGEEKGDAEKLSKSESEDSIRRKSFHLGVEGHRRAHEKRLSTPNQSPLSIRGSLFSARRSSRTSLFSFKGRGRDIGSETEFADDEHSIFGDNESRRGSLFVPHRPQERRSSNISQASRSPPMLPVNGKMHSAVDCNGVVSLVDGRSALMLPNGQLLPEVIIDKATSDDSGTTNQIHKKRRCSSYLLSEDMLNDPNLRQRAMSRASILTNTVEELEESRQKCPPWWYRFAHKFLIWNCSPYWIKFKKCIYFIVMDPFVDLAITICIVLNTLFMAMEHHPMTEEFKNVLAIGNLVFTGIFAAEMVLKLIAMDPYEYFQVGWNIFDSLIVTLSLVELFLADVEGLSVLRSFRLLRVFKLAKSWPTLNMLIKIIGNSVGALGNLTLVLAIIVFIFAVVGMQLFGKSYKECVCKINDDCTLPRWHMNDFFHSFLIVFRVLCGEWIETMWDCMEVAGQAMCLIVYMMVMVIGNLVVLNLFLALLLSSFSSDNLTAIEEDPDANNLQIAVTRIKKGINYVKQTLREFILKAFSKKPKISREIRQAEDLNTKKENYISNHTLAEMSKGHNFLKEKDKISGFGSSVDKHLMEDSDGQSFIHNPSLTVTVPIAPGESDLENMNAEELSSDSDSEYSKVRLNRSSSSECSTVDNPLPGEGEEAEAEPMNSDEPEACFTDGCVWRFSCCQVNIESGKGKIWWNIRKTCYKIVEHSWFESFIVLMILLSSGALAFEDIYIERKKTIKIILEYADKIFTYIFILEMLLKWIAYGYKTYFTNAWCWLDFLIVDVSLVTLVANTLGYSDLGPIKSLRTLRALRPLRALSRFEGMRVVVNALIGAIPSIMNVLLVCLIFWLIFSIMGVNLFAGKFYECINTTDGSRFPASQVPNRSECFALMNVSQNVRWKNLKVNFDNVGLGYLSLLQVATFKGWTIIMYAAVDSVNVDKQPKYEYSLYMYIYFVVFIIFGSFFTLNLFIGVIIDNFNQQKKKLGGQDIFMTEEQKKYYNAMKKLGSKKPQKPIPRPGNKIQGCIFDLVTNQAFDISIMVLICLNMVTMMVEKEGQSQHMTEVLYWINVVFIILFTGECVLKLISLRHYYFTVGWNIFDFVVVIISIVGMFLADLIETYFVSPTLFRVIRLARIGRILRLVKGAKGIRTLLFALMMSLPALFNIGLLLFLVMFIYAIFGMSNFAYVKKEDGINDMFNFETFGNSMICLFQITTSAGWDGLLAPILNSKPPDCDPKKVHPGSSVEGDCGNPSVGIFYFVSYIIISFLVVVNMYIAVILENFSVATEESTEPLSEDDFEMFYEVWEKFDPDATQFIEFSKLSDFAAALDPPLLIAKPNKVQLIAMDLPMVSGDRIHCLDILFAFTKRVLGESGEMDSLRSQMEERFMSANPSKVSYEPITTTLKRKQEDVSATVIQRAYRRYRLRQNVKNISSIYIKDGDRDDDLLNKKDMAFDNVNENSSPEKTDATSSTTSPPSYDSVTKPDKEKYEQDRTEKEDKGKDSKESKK
T4 sequence (Q15858 whole entry): as above
T2 sequence (Q9NY46 whole entry): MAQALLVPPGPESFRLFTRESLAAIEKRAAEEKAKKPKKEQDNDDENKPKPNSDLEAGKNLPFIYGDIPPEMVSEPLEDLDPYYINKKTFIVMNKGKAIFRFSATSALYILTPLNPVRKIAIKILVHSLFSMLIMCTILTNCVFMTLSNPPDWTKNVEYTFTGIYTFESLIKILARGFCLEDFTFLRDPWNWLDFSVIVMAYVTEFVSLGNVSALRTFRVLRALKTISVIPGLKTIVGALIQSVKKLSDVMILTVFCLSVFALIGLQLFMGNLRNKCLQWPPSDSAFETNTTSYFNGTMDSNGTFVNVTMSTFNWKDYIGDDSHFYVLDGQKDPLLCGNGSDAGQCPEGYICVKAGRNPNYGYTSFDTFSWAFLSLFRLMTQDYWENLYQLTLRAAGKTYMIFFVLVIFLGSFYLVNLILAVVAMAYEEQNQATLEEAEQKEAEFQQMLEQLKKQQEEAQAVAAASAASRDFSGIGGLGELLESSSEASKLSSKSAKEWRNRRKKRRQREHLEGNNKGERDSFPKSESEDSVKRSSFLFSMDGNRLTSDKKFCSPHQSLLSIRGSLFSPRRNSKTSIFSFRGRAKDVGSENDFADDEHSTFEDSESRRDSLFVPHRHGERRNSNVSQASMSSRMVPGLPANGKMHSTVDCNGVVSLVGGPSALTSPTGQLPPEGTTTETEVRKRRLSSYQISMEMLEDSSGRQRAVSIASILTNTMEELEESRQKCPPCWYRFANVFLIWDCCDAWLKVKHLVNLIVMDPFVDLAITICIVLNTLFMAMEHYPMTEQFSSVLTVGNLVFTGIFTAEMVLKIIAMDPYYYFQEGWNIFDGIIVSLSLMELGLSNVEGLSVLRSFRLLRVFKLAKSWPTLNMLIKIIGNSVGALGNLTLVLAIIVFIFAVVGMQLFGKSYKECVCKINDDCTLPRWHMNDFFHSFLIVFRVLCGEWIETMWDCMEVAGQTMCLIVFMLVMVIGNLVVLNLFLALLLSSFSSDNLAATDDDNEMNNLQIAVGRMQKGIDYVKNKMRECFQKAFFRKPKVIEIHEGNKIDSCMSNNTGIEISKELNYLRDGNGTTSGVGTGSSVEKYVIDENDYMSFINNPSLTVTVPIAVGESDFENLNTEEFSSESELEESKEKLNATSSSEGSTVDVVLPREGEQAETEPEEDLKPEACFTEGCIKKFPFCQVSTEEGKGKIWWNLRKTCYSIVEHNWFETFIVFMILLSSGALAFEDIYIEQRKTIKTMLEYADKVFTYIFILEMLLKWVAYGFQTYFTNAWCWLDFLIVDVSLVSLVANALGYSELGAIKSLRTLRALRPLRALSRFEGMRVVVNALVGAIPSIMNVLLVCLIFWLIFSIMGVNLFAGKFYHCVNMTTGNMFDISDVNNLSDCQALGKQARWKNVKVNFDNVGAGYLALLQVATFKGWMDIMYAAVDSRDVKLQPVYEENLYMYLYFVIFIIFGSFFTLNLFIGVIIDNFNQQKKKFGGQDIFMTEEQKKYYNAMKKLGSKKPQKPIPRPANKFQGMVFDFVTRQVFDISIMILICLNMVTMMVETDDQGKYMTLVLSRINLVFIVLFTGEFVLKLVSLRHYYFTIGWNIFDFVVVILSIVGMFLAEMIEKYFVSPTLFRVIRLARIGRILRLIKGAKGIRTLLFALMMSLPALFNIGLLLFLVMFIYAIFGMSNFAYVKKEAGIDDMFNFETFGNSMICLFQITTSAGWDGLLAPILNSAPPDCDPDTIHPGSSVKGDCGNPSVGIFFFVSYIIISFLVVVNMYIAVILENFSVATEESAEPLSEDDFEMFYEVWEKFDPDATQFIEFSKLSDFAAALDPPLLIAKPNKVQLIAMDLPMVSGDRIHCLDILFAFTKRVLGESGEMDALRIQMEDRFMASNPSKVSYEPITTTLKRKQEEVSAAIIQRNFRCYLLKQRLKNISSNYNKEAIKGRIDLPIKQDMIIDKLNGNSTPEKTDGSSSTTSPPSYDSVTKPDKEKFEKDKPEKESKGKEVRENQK

How did the IC50 (human Nav1.7 channels; bound holds for Nav1.7 and/or Nav1.3, not stated which, read-out: IC50 against Nav1.7 and/or Nav1.3) turn out when Cc1cc(Cn2cc3c(NC(=O)C(C)(C)O)nccc3n2)cnc1OCC(F)(F)F [Example 2, 2-hydroxy-2-methyl-N-(2-((5-methyl-6-(2,2,2-trifluoroethoxy)pyridin-3-yl)methyl)-2H-pyrazolo[4,3-c]pyridin-4-yl)propanamide] was run?
The IC50 was less than 1000 nM.

What about the IC50 (human Nav1.7 channels; read-out: activity against Nav1.7 (IC50)) of the same molecule?
The IC50 was 380 nM.

What about the Ki (human Nav1.3 (hSCN3A)) of the same molecule?
Its Ki is 570 nM.

What about the IC50 (human Nav1.5 channels) of the same molecule?
Its IC50 is greater than 30000 nM.

What about the Ki (human Nav1.7 (hSCN9A)) of the same molecule?
Its Ki is 340 nM.
